Laboratory results reported in ChEMBL document CHEMBL5625215, “Antiproliferative activity of meso-substituted BODIPY photocages: Effect of electrophiles vs singlet oxygen” (Eur J Med Chem, 2023).
The source made the active and inactive calls. The rule behind the calls is not given here.

How the values were obtained:
NCI-H460 [1] = assay: Antiproliferative activity against human NCI-H460 cells assessed as inhibition of cell growth incubated for 72 hrs under dark condition by MTT assay; assay type: functional, cell-based; settings: NCI-H460, 72 h
HCT-116 [2] = assay: Antiproliferative activity against human HCT-116 cells assessed as inhibition of cell growth incubated for 72 hrs under dark condition by MTT assay; assay type: functional, cell-based; settings: HCT-116, 72 h
HCT-116 [3] = assay: Antiproliferative activity against human HCT-116 cells assessed as inhibition of cell growth incubated for 72 hrs under photoirradiation with 6 cool white lamps for 15 mins at 4,28 and 52 hrs after compound addition by MTT assay; assay type: functional, cell-based; settings: HCT-116, light or radiation study
[4] = Absorption property of compound in CH3CN assessed as maximal molar absorption coefficient by UV-vis spectrophotometer; assay type: physicochemical
MCF7 [5] = assay: Antiproliferative activity against human MCF7 cells assessed as inhibition of cell growth incubated for 72 hrs under dark condition by MTT assay; assay type: functional, cell-based; settings: MCF7, 72 h
[6] = Emission property of compound in CH3CN assessed as maximal wavelength by […]; assay type: physicochemical
NCI-H460 [7] = assay: Antiproliferative activity against human NCI-H460 cells assessed as inhibition of cell growth incubated for 72 hrs under photoirradiation with 6 cool white lamps for 15 mins at 4,28 and 52 hrs after compound addition by MTT assay; assay type: functional, cell-based; settings: NCI-H460, light or radiation study
[8] = Absorption property of compound in CH3CN assessed as maximal wavelength by UV-vis spectrophotometer; assay type: physicochemical
[9] = Fluorescence property of compound in CH3CN assessed as fluorescence quantum yield by spectrofluorometric analysis; assay type: physicochemical
MCF7 [10] = assay: Antiproliferative activity against human MCF7 cells assessed as inhibition of cell growth incubated for 72 hrs under photoirradiation with 6 cool white lamps for 15 mins at 4,28 and 52 hrs after compound addition by MTT assay; assay type: functional, cell-based; settings: MCF7, light or radiation study
[11] = Induction of singlet oxygen production in CH3CN assessed as decrease in fluorescence intensity at 450 nm under photoirradiation with visible light and measured after 30 sec by DPBF based assay relative to control; assay type: functional; set-up: scale not given: the % may be the effect or the level left
HCT-116 [12] = assay: Induction of ROS generation in human HCT-116 cells at 5 uM incubated for 1 hrs under dark condition by DCFH-DA staining based fluorescence analysis; assay type: functional, cell-based
[13] = Induction of singlet oxygen production in CH3CN assessed as decrease in fluorescence intensity at 450 nm under photoirradiation with visible light and measured after 15 sec by DPBF based assay relative to control; assay type: functional; set-up: scale not given: the % may be the effect or the level left
[14] = Induction of singlet oxygen production in CH3CN assessed as decrease in fluorescence intensity at 450 nm under photoirradiation with visible light and measured after 1 min by DPBF based assay relative to control; assay type: functional; set-up: scale not given: the % may be the effect or the level left
HCT-116 [15] = assay: Induction of ROS generation in human HCT-116 cells assessed as increase in oxidative stress at 5 uM preincubated with compound for 1 hrs followed by photoirradiation with 6 cool white lamps by DCFH-DA staining based fluorescence analysis; assay type: functional, cell-based
[16] = Induction of singlet oxygen production in CH3CN assessed as decrease in fluorescence intensity at 450 nm under photoirradiation with visible light and measured after 45 sec by DPBF based assay relative to control; assay type: functional; set-up: scale not given: the % may be the effect or the level left
[17] = Induction of singlet oxygen production in CH3CN assessed as singlet oxygen quantum yield at 450 nm under photoirradiation with visible light and measured after 15 to 60 sec by DPBF based assay; assay type: functional; settings: time 15-60 sec
[18] = Cytotoxicity against human HaCaT cells assessed as inhibition of cell growth incubated for 72 hrs under photoirradiation with 6 cool white lamps for 15 mins at 4,28 and 52 hrs after compound addition by MTT assay; assay type: toxicity, cell-based
[19] = Cytotoxicity against HEK293T cells assessed as inhibition of cell growth incubated for 72 hrs under dark condition by MTT assay; assay type: toxicity, cell-based, HEK-293T; settings: human
[20] = Cytotoxicity against human HaCaT cells assessed as inhibition of cell growth incubated for 72 hrs under dark condition by MTT assay; assay type: toxicity, cell-based
[21] = Cytotoxicity against HEK293T cells assessed as inhibition of cell growth incubated for 72 hrs under photoirradiation with 6 cool white lamps for 15 mins at 4,28 and 52 hrs after compound addition by MTT assay; assay type: toxicity, cell-based, HEK-293T; settings: human

Row | Compound | IC50 (NCI-H460 [1]) [µM] | IC50 (HCT-116 [2]) [µM] | IC50 (HCT-116 [3]) [µM] | Activity [4] [M⁻¹ cm⁻¹] | IC50 (MCF7 [5]) [µM] | Activity [6] [nm] | IC50 (NCI-H460 [7]) [µM] | Activity [8] [nm] | Activity [9] | IC50 (MCF7 [10]) [µM] | other results
1 | CC1=C(I)C(C)=[N+]2C1=C(COc1ccccc1CO)c1c(C)c(I)c(C)n1[B-]2(C)C | 53 | 37 | 0.13 | 41143 | 27 | 560 | 0.18 | 537 | 0.005 | 0.13 | –
2 | COc1cccc(CO)c1OCC1=C2C(C)=C(Br)C(C)=[N+]2[B-](C)(C)n2c(C)c(Br)c(C)c21 | 19 | 14 | 0.192 | 54912 | 11 | 555 | 0.18 | 530 | 0.04 | 0.15 | –
3 | CC(=O)OCc1ccccc1OCC1=C2C(C)=C(I)C(C)=[N+]2[B-](C)(C)n2c(C)c(I)c(C)c21 | ≥ 100 | ≥ 100 | 0.18 | 37520 | 63 | 565 | 0.25 | 537 | 0.005 | 0.17 | –
4 | CO[B-]1(C)n2c(C)c(Br)c(C)c2C(COc2ccccc2CO)=C2C(C)=C(Br)C(C)=[N+]21 (stereo not given) | > 100 | > 100 | 14 | – | 27 | – | 17 | – | – | 6 | –
5 | CC1=CC(C)=[N+]2C1=C(COc1ccccc1CO)c1c(C)cc(C)n1[B-]2(C)C | 16.1 | 13 | 0.15 | 87209 | 14 | 527 | 0.13 | 510 | 0.33 | 0.2 | Activity [11]: 8.8%; Activity (HCT-116 [12]): inactive; Activity [13]: 1.1%; Activity [14]: 26.9%; Activity (HCT-116 [15]): Active; Activity [16]: 18.9%; Activity [17]: 0.1
6 | CO[B-]1(C)n2c(C)c(I)c(C)c2C(COc2ccccc2COC(C)=O)=C2C(C)=C(I)C(C)=[N+]21 (stereo not given) | > 100 | > 100 | 1.7 | – | 27 | – | 1.3 | – | – | 0.7 | –
7 | CC1=CC(C)=[N+]2C1=C(C=O)c1c(C)cc(C)n1[B-]2(C)C | > 100 | 49 | 40 | – | 20 | – | 61 | – | – | 15 | –
8 | COc1cccc(COC(C)=O)c1OCC1=C2C(C)=CC(C)=[N+]2[B-](C)(C)n2c(C)cc(C)c21 | ≥ 100 | ≥ 100 | 0.34 | 75178 | 47 | 522 | 0.26 | 510 | 0.27 | 0.2 | IC50 at 72 h [18]: 0.6 µM; Activity [11]: 6.9%; Activity (HCT-116 [12]): inactive; IC50 at 72 h [19]: ≥ 100 µM; Activity [13]: 1%; IC50 at 72 h [20]: > 100 µM; Activity [14]: 20.2%; Activity (HCT-116 [15]): Active; Activity [16]: 14.9%; IC50 at 72 h [21]: 1.3 µM; Activity [17]: 0.1
9 | COc1cccc(COC(C)=O)c1OCC1=C2C(C)=C(I)C(C)=[N+]2[B-](C)(C)n2c(C)c(I)c(C)c21 | > 100 | > 100 | 0.176 | 58719 | > 100 | 545 | 0.22 | 535 | 0.017 | 0.13 | IC50 at 72 h [18]: 0.2 µM; Activity [11]: 98.8%; IC50 at 72 h [19]: > 100 µM; Activity [13]: 84.9%; IC50 at 72 h [20]: > 100 µM; Activity [16]: 100%; IC50 at 72 h [21]: 0.2 µM; Activity [17]: 0.78

More lines, main results first:

Row | IC50 (NCI-H460 [1]) [µM] | IC50 (HCT-116 [2]) [µM] | IC50 (HCT-116 [3]) [µM] | Activity [4] [M⁻¹ cm⁻¹] | IC50 (MCF7 [5]) [µM] | Activity [6] [nm] | IC50 (NCI-H460 [7]) [µM] | Activity [8] [nm] | Activity [9] | IC50 (MCF7 [10]) [µM] | Compound | other results
10 | 69 | 26 | 0.4 | 42810 | 17 | 557 | 0.6 | 531 | 0.04 | 0.23 | CC1=C(Br)C(C)=[N+]2C1=C(COc1ccccc1CO)c1c(C)c(Br)c(C)n1[B-]2(C)C | –
11 | 31 | 13 | 0.15 | 65694 | 12 | 560 | 0.15 | 535 | 0.012 | 0.1 | COc1cccc(CO)c1OCC1=C2C(C)=C(I)C(C)=[N+]2[B-](C)(C)n2c(C)c(I)c(C)c21 | –
12 | – | – | – | 99848 | – | 528 | – | 517 | 0.99 | – | CC(=O)OCC1=C2C(C)=CC(C)=[N+]2[B-](F)(F)n2c(C)cc(C)c21 | –
13 | 34 | 42 | 30 | – | 8 | – | ≤ 50 | – | – | 8 | CO[B-]1(C)n2c(C)c(I)c(C)c2C(COc2ccccc2CO)=C2C(C)=C(I)C(C)=[N+]21 (stereo not given) | –
14 | 48 | 24 | 6 | – | 15 | – | 16 | – | – | 2 | COc1cccc(COC(C)=O)c1OCC1=C2C(C)=C(Br)C(C)=[N+]2[B-](C)(OC)n2c(C)c(Br)c(C)c21 (stereo not given) | –
15 | 16 | 12 | 0.38 | 109069 | 15 | 521 | 0.24 | 510 | 0.33 | 0.2 | COc1cccc(CO)c1OCC1=C2C(C)=CC(C)=[N+]2[B-](C)(C)n2c(C)cc(C)c21 | Activity (HCT-116 [12]): inactive; Activity (HCT-116 [15]): Active
16 | 20 | 17 | 2.3 | – | 13 | – | 2 | – | – | 1.18 | CO[B-]1(C)n2c(C)cc(C)c2C(COc2ccccc2COC(C)=O)=C2C(C)=CC(C)=[N+]21 (stereo not given) | –
17 | 83 | 33 | 0.21 | 146706 | 27 | 521 | 0.19 | 510 | 0.28 | 0.2 | CC(=O)OCc1ccccc1OCC1=C2C(C)=CC(C)=[N+]2[B-](C)(C)n2c(C)cc(C)c21 | Activity [11]: 12.9%; Activity (HCT-116 [12]): inactive; Activity [13]: 4.9%; Activity [14]: 32.3%; Activity (HCT-116 [15]): Active; Activity [16]: 21.1%; Activity [17]: 0.1
